# Target: Vesicular glutamate transporter 1 (Rattus norvegicus) (UniProt Q62634)
# Test: Compound was evaluated for the binding affinity against glutamate vesicular transport (GVT)
# Vesicular glutamate transporter 1 (Rattus norvegicus), sequence (Q62634 whole entry, looked up): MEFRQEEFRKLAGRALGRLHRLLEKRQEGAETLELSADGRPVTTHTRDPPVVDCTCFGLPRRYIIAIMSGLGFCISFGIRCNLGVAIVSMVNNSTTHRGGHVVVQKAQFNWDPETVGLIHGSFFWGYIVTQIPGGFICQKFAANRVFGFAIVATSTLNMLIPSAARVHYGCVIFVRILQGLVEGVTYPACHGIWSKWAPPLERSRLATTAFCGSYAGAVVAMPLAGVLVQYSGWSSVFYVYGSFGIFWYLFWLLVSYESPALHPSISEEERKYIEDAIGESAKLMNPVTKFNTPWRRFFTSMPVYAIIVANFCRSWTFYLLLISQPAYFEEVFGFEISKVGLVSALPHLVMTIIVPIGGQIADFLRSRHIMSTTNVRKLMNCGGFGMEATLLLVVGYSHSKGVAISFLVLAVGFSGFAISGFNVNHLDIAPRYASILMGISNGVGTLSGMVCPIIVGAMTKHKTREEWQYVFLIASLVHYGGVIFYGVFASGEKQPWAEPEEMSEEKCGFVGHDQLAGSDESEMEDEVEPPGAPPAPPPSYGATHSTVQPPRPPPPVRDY
smiles,measurement,value
"O=C(O)c1cc(C(=O)O)c2cc(OCc3ccccc3)ccc2n1 [6-Benzyloxy-quinoline-2,4-dicarboxylic acid]",Ki,204 µM
